inhibition, IC50 and Activity data for 13 molecules are collected here from ChEMBL document CHEMBL5370561, “Characterization of a Malabaricane-Type Triterpene Synthase from Astragalus membranaceus and Enzymatic Synthesis of Astramalabaricosides” (J Nat Prod, 2023).

One assay concerns Influenza A virus. Put plainly: Antiviral activity against Influenza A virus infected in HEK293T-GlUC cells assessed as inhibition of viral replication at 10 uM preincubated with cells for 2 hrs followed by viral infection and measured after 24 hrs relative to control. Format: functional. Particulars: HEK-293T, time 26 hrs.
Another assay concerns PANC-1. Nature of the assay: Cytotoxicity against human PANC-1 cells assessed as reduction in cell growth measured after 72 hrs by MTT assay. It counts as functional, cell-based. Particulars: PANC-1, 72 h.
In a further assay the test system is RAW264.7. Nature of the assay: Antiinflammatory activity in LPS-induced mouse RAW264.7 cells assessed as inhibition of TNF-alpha production at 10 uM incubated for 1 hr followed by LPS-stimulation and measured after 24 hrs by ELISA analysis relative to control. It counts as functional. Particulars: time 25 hrs. For orientation: An ELISA detects its analyte on a solid surface through an enzyme-linked reagent.

The subject of the next assay is PC-9. Put plainly: Cytotoxicity against human PC-9 cells assessed as reduction in cell growth measured after 72 hrs by MTT assay. It counts as functional, cell-based. Particulars: PC-9, 72 h. A general note: Tetrazolium dyes change colour on reduction, which living cells bring about.
A further assay has as its system HCT-116. Nature of the assay: Cytotoxicity against human HCT-116 cells assessed as reduction in cell growth measured after 72 hrs by MTT assay. Format: functional, cell-based. The conditions noted are these: HCT-116, 72 h.
The next assay concerns BGC-823. Put plainly: Cytotoxicity against human BGC-823 cells assessed as reduction in cell growth measured after 72 hrs by MTT assay. It counts as functional, cell-based. Particulars: BGC-823, 72 h.
Assay [1] has as its system HepG2. Put plainly: Cytotoxicity against human HepG2 cells assessed as reduction in cell growth measured after 72 hrs by MTT assay. The conditions noted are these: HepG2, 72 h. Format: functional, cell-based.
In assay [2] the test system is HepG2. Nature of the assay: Hepatoprotective activity against APAP-induced cell injury in human HepG2 cells assessed as cell survival rate at 10 uM incubated for 24 hrs by MTT assay relative to control. It counts as functional.

Some results are limits rather than exact numbers.

`C=C(CC/C=C(\C)CCC=C(C)C)[C@H]1CC[C@H]2[C@@]1(C)CC[C@H]1C(C)(C)[C@@H](O)CC[C@]21C`: the inhibition at 10 µM was determined as 45% with Influenza A virus and 40% with RAW264.7. Further, the concentration for half-maximal inhibition (IC50) with PANC-1, with PC-9, in the assay with HCT-116, in the assay on BGC-823 and in the assay on HepG2 [1] was above 50 µM in each case.

For the molecule `CC(C)=CCC/C(C)=C/CCC(C)(O)[C@H]1CC[C@H]2[C@@]1(C)CC[C@H]1C(C)(C)[C@@H](O)CC[C@]21C` (some centres undefined), the Activity in the assay on HepG2 [2] turned out to be 47%. For the same molecule, the inhibition at 10 µM was 71% in the assay with Influenza A virus and 34% in the assay with RAW264.7. Moreover, the IC50 turned out to be 15 µM with PANC-1; 14 µM in the assay on PC-9; 17 µM with HCT-116; 40 µM with BGC-823; 22 µM in the assay on HepG2 [1].

As to `CC(C)=CCC/C(C)=C/CC[C@@](C)(O)[C@@H]1CC[C@H]2[C@@]1(C)CC[C@H]1C(C)(C)[C@@H](O[C@@H]3O[C@H](CO)[C@@H](O)[C@H](O)[C@H]3O[C@@H]3O[C@H](CO)[C@@H](O)[C@H](O)[C@H]3O)CC[C@]21C`, the Activity in the assay on HepG2 [2] turned out to be 48%. For the same molecule, the inhibition at 10 µM in the assay with Influenza A virus amounted to 65%; in the assay with RAW264.7, 30%. Further, the IC50 in the assay with PANC-1 is 45 µM; with PC-9, 36 µM; in the assay on HCT-116, 39 µM; with BGC-823, 26 µM; in the assay on HepG2 [1], above 50 µM.

With `CC(C)=CCC[C@@](C)(O)[C@H]1CC[C@]2(C)[C@@H]1CC[C@@H]1[C@@]3(C)CC[C@H](O)C(C)(C)[C@@H]3CC[C@]12C`, the Activity with HepG2 [2] was 51%. Moreover, the inhibition at 10 µM stood at 57% with Influenza A virus and 43% with RAW264.7. Further, the IC50 amounted to 33 µM in the assay on PANC-1; 49 µM in the assay with PC-9; 40 µM with HCT-116; 40 µM in the assay on BGC-823; 37 µM with HepG2 [1].

With `CC(C)=CCC/C(C)=C/CC[C@@](C)(O)[C@@H]1CC[C@H]2[C@@]1(C)CC[C@H]1C(C)(C)[C@@H](O[C@@H]3O[C@H](CO)[C@@H](O)[C@H](O)[C@H]3O)CC[C@]21C`, the Activity in the assay on HepG2 [2] was found to be 55%. In addition, the inhibition at 10 µM in the assay on Influenza A virus stood at 47%; in the assay with RAW264.7 it was 39%. For the same molecule, the half-maximal inhibitory concentration (IC50) with PANC-1 is 22 µM; with PC-9, 49 µM; in the assay on HCT-116 it was 28 µM; in the assay with BGC-823, above 50 µM; with HepG2 [1], above 50 µM.

`CC(C)=CCC/C(C)=C/CC[C@@](C)(O)[C@@H]1CC[C@H]2[C@@]1(C)CC[C@H]1C(C)(C)[C@@H](O)CC[C@]21C`: the inhibition at 10 µM in the assay with Influenza A virus was 76%; with RAW264.7, 42%. Moreover, the IC50 in the assay on PANC-1 worked out at 29 µM; in the assay with PC-9, 44 µM; in the assay on HCT-116 it was 41 µM; in the assay with BGC-823, 42 µM; in the assay on HepG2 [1], 31 µM.

Consider `CC(C)=CC/C=C(/C)[C@H]1CC[C@]2(C)[C@@H]1CC[C@@H]1[C@@]3(C)CC[C@H](O)C(C)(C)[C@@H]3CC[C@]12C`, for which the Activity in the assay with HepG2 [2] was 52%. The inhibition at 10 µM with Influenza A virus is 88%; with RAW264.7, 50%. For the same molecule, the IC50 in the assay with PANC-1, in the assay on PC-9, in the assay on HCT-116, in the assay on BGC-823 and in the assay with HepG2 [1] was above 50 µM each time.

For the molecule `C=C(CC/C=C(\C)CCC=C(C)C)[C@@H]1CC[C@H]2[C@@]1(C)CC[C@H]1C(C)(C)[C@@H](O)CC[C@]21C`, the Activity in the assay with HepG2 [2] was 58%. Moreover, the inhibition at 10 µM with Influenza A virus amounted to 62%; with RAW264.7, 53%. In addition, the IC50 in the assay with PANC-1, in the assay with PC-9, with HCT-116, with BGC-823 and in the assay with HepG2 [1] was above 50 µM throughout.

Regarding `C[C@@H]1C[C@H]2[C@@H]3CCC4=CC(=O)C=C[C@]4(C)[C@@]3(F)[C@@H](O)C[C@]2(C)[C@@]1(O)C(=O)CO` [DEXAMETHASONE], the inhibition at 10 µM in the assay on RAW264.7 amounted to 55%.

For `N[C@@H](CCC(=O)N[C@@H](CS)C(=O)NCC(=O)O)C(=O)O` [GLUTATHIONE], the Activity in the assay with HepG2 [2] is listed as 60%.

For `C=C(C)[C@@H]1CC[C@]2(C)CC[C@]3(C)[C@H](CC[C@@H]4[C@@]5(C)CC[C@H](O)C(C)(C)[C@@H]5CC[C@]43C)[C@@H]12` [LUPEOL], the inhibition at 10 µM in the assay on Influenza A virus amounted to 17%; in the assay with RAW264.7, 34%. Moreover, the IC50 in the assay on PANC-1, in the assay on PC-9, in the assay on HCT-116, in the assay on BGC-823 and with HepG2 [1] was above 50 µM each time.

With `CC(=O)O[C@H]1C(=O)[C@@]2(C)[C@H]([C@H](OC(=O)c3ccccc3)[C@]3(O)C[C@H](OC(=O)[C@H](O)[C@@H](NC(=O)c4ccccc4)c4ccccc4)C(C)=C1C3(C)C)[C@]1(OC(C)=O)CO[C@@H]1C[C@@H]2O` [PACLITAXEL], the IC50 in the assay with PANC-1 stood at 0.004 µM; with HepG2 [1], 0.064 µM.

As to `NC(=O)c1ncn([C@@H]2O[C@H](CO)[C@@H](O)[C@H]2O)n1` [RIBAVIRIN], in the assay with Influenza A virus, the inhibition at 10 µM amounted to 97%.

One may read the inhibition as the relative decrease from the control value, in per cent. One may read the IC50 as the concentration that gives 50% inhibition.
